# Laboratory results reported in US20230348426A1, “OXOPYRROLIDINE FPR2 AGONISTS” (Bristol-Myers Squibb Company, priority 2020, published 2023).
# pEC50: −log10 of the molar value.
# Columns and labels:
# human FPR2 = human FPR2 (Homo sapiens (Human), UniProt P25090); experiment: FPR2 cyclic adenosine monophosphate (cAMP) assay; type: cell-based; conditions: CHO cells overexpressing human FPR2; forskolin 5 µM; inhibition of cAMP production; read-out: hFPR2 cAMP2 EC50
# Summary of the method: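 CHO cells overexpressing human FPR2 (2,000/well) incubated 30 min at room temperature with compound (0.020 nM–100 µM, 1% DMSO), 5 µM forskolin and 200 µM IBMX.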
# human FPR1 = human FPR1 (Homo sapiens (Human), UniProt P21462); experiment: FPR1 cyclic adenosine monophosphate (cAMP) assay; type: cell-based; conditions: CHO cells overexpressing human FPR1; forskolin 10 µM; inhibition of cAMP production; read-out: hFPR1 cAMP EC50
# Chain of human FPR1 (P21462 whole entry): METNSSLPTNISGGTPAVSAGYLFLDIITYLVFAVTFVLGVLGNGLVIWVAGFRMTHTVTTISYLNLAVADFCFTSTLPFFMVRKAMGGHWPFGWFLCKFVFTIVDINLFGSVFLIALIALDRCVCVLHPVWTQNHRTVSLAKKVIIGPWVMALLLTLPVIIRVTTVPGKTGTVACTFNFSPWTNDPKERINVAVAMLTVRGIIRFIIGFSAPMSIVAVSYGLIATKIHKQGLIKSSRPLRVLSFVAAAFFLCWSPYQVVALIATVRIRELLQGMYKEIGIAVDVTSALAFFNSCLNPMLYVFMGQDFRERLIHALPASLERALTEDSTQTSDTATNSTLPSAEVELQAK
# Summary of the method: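 CHO cells overexpressing human FPR1 (4,000 cells/well) stimulated with 10 µM forskolin plus 200 µM IBMX in the presence of compound (0.020 nM–100 µM, 1% DMSO), 30 min at room temperature. Intracellular cAMP measured by HTRF. Inhibition of cAMP production fitted to a 4-parameter logistic equation.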
# Chain of human FPR2 (P25090 whole entry): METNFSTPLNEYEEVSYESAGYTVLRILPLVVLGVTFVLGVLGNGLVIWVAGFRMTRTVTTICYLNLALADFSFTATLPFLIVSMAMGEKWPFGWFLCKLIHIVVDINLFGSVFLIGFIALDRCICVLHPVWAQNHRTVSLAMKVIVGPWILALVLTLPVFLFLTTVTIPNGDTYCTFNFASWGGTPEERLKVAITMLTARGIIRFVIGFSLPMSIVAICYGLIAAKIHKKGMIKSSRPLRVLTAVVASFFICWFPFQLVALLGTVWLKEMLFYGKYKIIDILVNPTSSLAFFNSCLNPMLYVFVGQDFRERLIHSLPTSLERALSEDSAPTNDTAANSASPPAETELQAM
structure (smiles),measurement,setting,value
COc1cc(C2CCOCC2)nc(N2C(=O)[C@@H](NC(=O)c3ccc(OC(F)F)cc3)[C@H](c3c(F)cc(OC)cc3F)[C@H]2C)c1 [Example 539],pEC50,human FPR2,8.17
same,pEC50,human FPR1,6.33
COc1cc(F)c([C@H]2[C@H](NC(=O)c3ccc(OC(F)F)cc3)C(=O)N(c3cccc(OCCO)n3)[C@H]2C)c(F)c1 [Example 559],pEC50,human FPR2,8.18
same,pEC50,human FPR1,6.35
COc1cc(F)c([C@@H]2CN(C3CCC3)C(=O)[C@H]2NC(=O)c2ccc(OC(F)(F)F)cc2)c(F)c1 [Example 335],pEC50,human FPR2,7.82
same,pEC50,human FPR1,6.35
COc1cc(F)c([C@@H]2CN(c3cc(F)cc(OC(C)C)c3)C(=O)[C@H]2NC(=O)c2ccc(OC(F)(F)F)cc2)c(F)c1 [Example 14],pEC50,human FPR2,7.43
same,pEC50,human FPR1,7.37
COc1cc(F)c([C@@H]2CN(c3ccnn(CC(F)F)c3=O)C(=O)[C@H]2NC(=O)c2ccc(OC(F)(F)F)cc2)c(F)c1 [Example 473],pEC50,human FPR2,8.74
same,pEC50,human FPR1,8.70
COCC(CO)n1nccc(N2C[C@@H](c3c(F)cc(OC)cc3F)[C@H](NC(=O)c3ccc(OC(F)(F)F)cc3)C2=O)c1=O (stereo partly shown) [Example 452],pEC50,human FPR2,8.02
same,pEC50,human FPR1,8.40
COc1cc(F)c([C@@H]2CN(c3c(C)ccn(CCC(F)(F)F)c3=O)C(=O)[C@H]2NC(=O)c2ccc(Cl)cc2)c(F)c1 [Example 611],pEC50,human FPR2,8.62
same,pEC50,human FPR1,8.23
COc1ccc([C@@H]2CN(c3cccn(CC(F)F)c3=O)C(=O)[C@H]2NC(=O)c2ccc(OC(F)F)cc2)cc1 [Example 91],pEC50,human FPR2,8.59
same,pEC50,human FPR1,7.80
COc1ccc([C@@H]2CN(c3c(C)ccn(CC4CC4)c3=O)C(=O)[C@H]2NC(=O)c2ccc(Cl)cc2)cc1 [Example 385],pEC50,human FPR2,8.15
same,pEC50,human FPR1,9.00
COCC(CO)n1ccc(C)c(N2C[C@@H](c3ccc(OC)cc3)[C@H](NC(=O)c3ccc(OC(F)F)cc3)C2=O)c1=O (stereo partly shown) [Example 389],pEC50,human FPR2,> 8.30
same,pEC50,human FPR1,> 8.30
COc1cc(F)c([C@@H]2CN(c3c(C)ccn(C4CCNC4)c3=O)C(=O)[C@H]2NC(=O)c2ccc(OC(F)(F)F)cc2)c(F)c1 (stereo partly shown) [Example 602],pEC50,human FPR2,8.42
same,pEC50,human FPR1,7.06
CCn1ccc(N2C[C@@H](c3c(F)cc(OC)cc3F)[C@H](NC(=O)c3ccc(Cl)cc3)C2=O)n1 [Example 647],pEC50,human FPR2,8.82
same,pEC50,human FPR1,7.66
COCC(CO)n1cccc(N2C[C@@H](c3ccc(Cl)cc3)[C@H](NC(=O)c3ccc(Cl)cc3)C2=O)c1=O (stereo partly shown) [Example 414],pEC50,human FPR2,8.33
same,pEC50,human FPR1,7.72
COc1ccc([C@@H]2CN(c3cccn(CCC(F)(F)F)c3=O)C(=O)[C@H]2NC(=O)c2ccc(OC(F)F)cc2)c(F)c1 [Example 55],pEC50,human FPR2,8.85
same,pEC50,human FPR1,8.07
COc1ccc([C@@H]2CN(c3c(C)ccn(C4CCOC4)c3=O)C(=O)[C@H]2NC(=O)c2ccc(OC(F)F)cc2)cc1 (stereo partly shown) [Example 265],pEC50,human FPR2,8.12
same,pEC50,human FPR1,8.82
COc1cc(F)c([C@@H]2CN(c3nc(C4CCN(CC(F)(F)F)CC4)ccc3F)C(=O)[C@H]2NC(=O)c2ccc(OC(F)F)cc2)c(F)c1 [Example 550],pEC50,human FPR2,8.00
same,pEC50,human FPR1,8.46
COc1cc(F)c([C@@H]2CN(c3cc(OCC4CCCO4)ncn3)C(=O)[C@H]2NC(=O)c2ccc(Cl)cc2)c(F)c1 (stereo partly shown) [Example 499],pEC50,human FPR2,7.54
same,pEC50,human FPR1,7.22
CCn1cccc(N2C(=O)[C@@H](NC(=O)c3ccc(OC(F)(F)F)cc3)[C@H](c3c(F)cc(OC)cc3F)[C@@H]2C)c1=O [Example 93],pEC50,human FPR2,8.59
same,pEC50,human FPR1,7.17
COCCn1ccc(C)c(N2C[C@@H](c3ccc(OC)cc3F)[C@H](NC(=O)c3ccc(Cl)cc3)C2=O)c1=O [Example 635],pEC50,human FPR2,8.43
same,pEC50,human FPR1,8.20
O=C(N[C@@H]1C(=O)N(c2cccn(CC(F)F)c2=O)C[C@H]1c1ccc(Cl)cc1)c1ccc(OC(F)(F)F)cc1 [Example 69],pEC50,human FPR2,8.72
same,pEC50,human FPR1,8.38
COCCn1cccc(N2C[C@@H](c3c(F)cc(OC)cc3F)[C@H](NC(=O)c3ccc(Cl)cc3)C2=O)c1=O [Example 137],pEC50,human FPR2,8.46
same,pEC50,human FPR1,6.72
COc1ccc([C@@H]2CN(c3c(C)ccn(CC(F)F)c3=O)C(=O)[C@H]2NC(=O)c2ccc(OC(F)(F)F)cc2)cc1 [Example 121],pEC50,human FPR2,8.51
same,pEC50,human FPR1,8.85
COc1cc(F)c([C@@H]2CN(c3cccn(C4CCOC4)c3=O)C(=O)[C@H]2NC(=O)c2ccc(OC(F)F)cc2)c(F)c1 (stereo partly shown) [Example 320],pEC50,human FPR2,8.00
same,pEC50,human FPR1,7.36
COc1cc(F)c([C@@H]2CN(c3cncn(C4CCN(C)C4)c3=O)C(=O)[C@H]2NC(=O)c2ccc(Cl)cc2)c(F)c1 (stereo partly shown) [Example 514],pEC50,human FPR2,8.59
same,pEC50,human FPR1,6.57
COCCn1ccc(C)c(N2C[C@@H](c3c(F)cc(OC)cc3F)[C@H](NC(=O)c3ccc(Cl)cc3)C2=O)c1=O [Example 633],pEC50,human FPR2,8.85
same,pEC50,human FPR1,8.37
COCC(C(=O)N(C)C)n1cccc(N2C[C@@H](c3c(F)cc(OC)cc3F)[C@H](NC(=O)c3ccc(OC(F)F)cc3)C2=O)c1=O (stereo partly shown) [Example 172],pEC50,human FPR2,8.35
same,pEC50,human FPR1,7.41
COc1cc(F)c([C@@H]2CN(c3c(C)ccn(CC(O)C(F)(F)F)c3=O)C(=O)[C@H]2NC(=O)c2ccc(OC(F)F)cc2)c(F)c1 (stereo partly shown) [Example 634],pEC50,human FPR2,8.70
same,pEC50,human FPR1,8.64
COCC(CO)n1ccc(C)c(N2C[C@@H](c3c(F)cc(OC)cc3F)[C@H](NC(=O)c3ccc(OC(F)F)cc3)C2=O)c1=O (stereo partly shown) [Example 426],pEC50,human FPR2,8.64
same,pEC50,human FPR1,8.40
COc1ccc([C@@H]2CN(c3c(C)ccn(CC(F)F)c3=O)C(=O)[C@H]2NC(=O)c2ccc(OC(F)F)cc2)c(F)c1 [Example 376],pEC50,human FPR2,9.40
same,pEC50,human FPR1,8.40
COc1cc(F)c([C@@H]2CN(c3c(C)ccn(C4CCN(C)C4)c3=O)C(=O)[C@H]2NC(=O)c2ccc(OC(F)F)cc2)c(F)c1 (stereo partly shown) [Example 508],pEC50,human FPR2,8.19
same,pEC50,human FPR1,6.96
COCCn1cccc(N2C[C@@H](c3c(F)cc(OC)cc3F)[C@H](NC(=O)c3ccc(OC(F)F)cc3)C2=O)c1=O [Example 113],pEC50,human FPR2,8.52
same,pEC50,human FPR1,7.80
COCC(CN)n1cccc(N2C[C@@H](c3c(F)cc(OC)cc3F)[C@H](NC(=O)c3ccc(OC(F)F)cc3)C2=O)c1=O (stereo partly shown) [Example 41],pEC50,human FPR2,9.22
same,pEC50,human FPR1,6.96
CCn1cccc(N2C[C@@H](c3c(F)cc(OC)cc3F)[C@H](NC(=O)c3ccc(C)cc3)C2=O)c1=O [Example 215],pEC50,human FPR2,8.25
same,pEC50,human FPR1,7.39
COCCn1cccc(N2C[C@@H](c3ccc(OC)cc3F)[C@H](NC(=O)c3ccc(OC(F)(F)F)cc3)C2=O)c1=O [Example 53],pEC50,human FPR2,8.85
same,pEC50,human FPR1,8.64
COc1cc(F)c([C@@H]2CN(c3cccnc3OC3CCOC3)C(=O)[C@H]2NC(=O)c2ccc(OC(F)(F)F)cc2)c(F)c1 (stereo partly shown) [Example 235],pEC50,human FPR2,8.19
same,pEC50,human FPR1,7.08
COc1cc(F)c([C@@H]2CN(c3nccc(N4CCN(C)CC4)c3C(F)(F)F)C(=O)[C@H]2NC(=O)c2ccc(Cl)cc2)c(F)c1 [Example 250],pEC50,human FPR2,8.16
same,pEC50,human FPR1,5.32
COc1cc(F)c([C@@H]2CN(c3ccnn(CC(F)F)c3=O)C(=O)[C@H]2NC(=O)c2ccc(OC(F)F)cc2)c(F)c1 [Example 474],pEC50,human FPR2,8.68
same,pEC50,human FPR1,8.40
COc1cc(F)c([C@@H]2CN(c3ccc(C(=O)O)n(CCO)c3=O)C(=O)[C@H]2NC(=O)c2ccc(OC(F)(F)F)cc2)c(F)c1 [Example 703],pEC50,human FPR2,7.24
same,pEC50,human FPR1,7.00
COc1cc(F)c([C@@H]2CN(c3nc(NC(C)=O)ccc3F)C(=O)[C@H]2NC(=O)c2ccc(OC(F)F)cc2)c(F)c1 [Example 146],pEC50,human FPR2,8.42
same,pEC50,human FPR1,6.82
COc1cc(F)c([C@@H]2CN(c3cccn4cc(C(F)(F)F)nc34)C(=O)[C@H]2NC(=O)c2ccc(Cl)cc2)c(F)c1 [Example 497],pEC50,human FPR2,8.92
same,pEC50,human FPR1,6.14
COc1cc(F)c([C@@H]2CN(c3cccn(CCN(C)C)c3=O)C(=O)[C@H]2NC(=O)c2ccc(OC(F)(F)F)cc2)c(F)c1 [Example 85],pEC50,human FPR2,8.64
same,pEC50,human FPR1,6.80
CCn1cc(C)c(C)c(N2C[C@@H](c3c(F)cc(OC)cc3F)C(NC(=O)c3ccc(OC(F)(F)F)cc3)C2=O)c1=O (stereo partly shown) [Example 638],pEC50,human FPR2,7.85
same,pEC50,human FPR1,6.54
COc1cc(F)c([C@@H]2CN(c3nc(N4CCN(C)CC4)ccc3OC)C(=O)[C@H]2NC(=O)c2ccc(OC(F)F)cc2)c(F)c1 [Example 303],pEC50,human FPR2,8.02
same,pEC50,human FPR1,6.41
COc1cc(F)c([C@@H]2CN(c3ncccc3C(F)(F)F)C(=O)[C@H]2NC(=O)C2CCc3cc(OC)ccc3C2)c(F)c1 (stereo partly shown) [Example 349],pEC50,human FPR2,6.24
same,pEC50,human FPR1,5.26
COc1cc(F)c([C@@H]2CN(c3cccn(C(F)F)c3=O)C(=O)[C@H]2NC(=O)c2ccc(OC(F)(F)F)cc2)c(F)c1 [Example 188],pEC50,human FPR2,8.31
same,pEC50,human FPR1,7.42
COc1cc(F)c([C@@H]2CN(c3nc(N4C[C@@H](C)N(C)[C@@H](C)C4)ccc3C#N)C(=O)[C@H]2NC(=O)c2ccc(Cl)cc2)c(F)c1 [Example 318],pEC50,human FPR2,8.00
same,pEC50,human FPR1,< 5.00
CCn1cc2c(c(N3C[C@@H](c4c(F)cc(OC)cc4F)[C@H](NC(=O)c4ccc(OC(F)F)cc4)C3=O)c1=O)CCCC2 [Example 663],pEC50,human FPR2,8.96
same,pEC50,human FPR1,5.77
COc1cc(F)c([C@@H]2CN(c3nccc(NCC(C)O)c3C(F)(F)F)C(=O)[C@H]2NC(=O)c2ccc(OC(F)F)cc2)c(F)c1 (stereo partly shown) [Example 129],pEC50,human FPR2,8.48
same,pEC50,human FPR1,6.42
COc1cc(F)c([C@@H]2CN(c3c(C)ccn(CC(O)C4CC4)c3=O)C(=O)[C@H]2NC(=O)c2ccc(OC(F)F)cc2)c(F)c1 (stereo partly shown) [Example 685],pEC50,human FPR2,7.85
same,pEC50,human FPR1,8.85
COCCn1cccc(N2C(=O)[C@@H](NC(=O)c3ccc(OC(F)F)cc3)[C@H](c3c(F)cc(OC)cc3F)[C@H]2C)c1=O [Example 127],pEC50,human FPR2,8.48
same,pEC50,human FPR1,6.41
